As to `CC(=O)c1ccc2c(c1)ncn2-c1cccc(N2CCN(C(C)=NO)CC2)c1`, the melting point – broadly, the temperature, or range, at which the solid turns liquid – was in the range of 193 to 195 °C.

For `Cn1nc2c(c1S(C)(=O)=O)CCCN2c1ccc(Cl)cc1Cl`, the melting point lay within 182 to 183 °C. Regarding `COc1cc(N)c(C#N)cc1C(=O)O`, the melting point stood at 237 °C. The same measure for `C=C(C)c1cc(NC(=O)N2CCN(c3cc(C)cc(C)c3)CC2)c(OC)nc1C`: 140 to 142 °C. The same measure for `CCCc1n[nH]c2c(=O)[nH]c(-c3cc(S(=O)(=O)N4CCN(C)CC4)ccc3OCC)nc12`: 236 to 239 °C.

Compound `CN(Cc1cccc(-c2ccc(CC3SC(=O)NC3=O)cc2)c1)C(=O)c1ccc2cc(O)ccc2c1` (stereo unspecified) registered a melting point of 218 °C. The same measure for `Cc1nc(-n2cnn(Cc3ccc(F)cc3)c2=O)sc1C(=O)NCc1nccs1`: 189 to 190 °C. The same measure for `CCC(C)(C)c1ccc(Oc2ccc(C(F)(F)F)cc2NC(=O)Nc2cc(C(F)(F)F)cc(C(F)(F)F)c2)c(C(=O)O)c1`: 238 to 240 °C; for `Cc1sc2nc3ccc(C#N)cn3c(=O)c2c1C`: 306 to 307 °C.

The compound `Cc1cc(C(F)(F)F)cnc1O` returned a melting point of 141 to 143 °C. In turn, `CC(C)(C)N(NC(=O)c1ccccn1)C(=O)c1ccccc1[N+](=O)[O-]` displayed a melting point of 137 to 140 °C.

With `CCN(CC)CCNC(=O)c1cc(N(C)S(C)(=O)=O)ccc1OC`, the melting point lay within 48 to 50 °C. Compound `CNC(=N[N+](=O)[O-])N(Cc1cnc(Cl)s1)C(=O)C(C)C` yielded a melting point of 101 to 104 °C. The same measure for `CCOC(=O)c1c2ccc(CC(=O)NOC(=O)NCCCCN)ccc-2c(C(=O)OCC)c1N`: 150 °C; for `CN1CCN(C(=O)c2cc3ccccc3c(=O)[nH]2)CC1`: 170 to 172 °C; for `COc1cc(F)c(-c2cncc(OC3SCC(OC(C)=O)C(OC(C)=O)C3OC(C)=O)c2)c(F)c1` (stereo unspecified): 62 °C. For the compound `CCN(CC)CCOc1ccc(Nc2nc(N)c(C(=O)c3cccc(OC)c3)s2)cc1`, the melting point lay in the range of 118 to 123 °C. The same measure for `COc1ccc(C2=NN(C3CCOCC3)C(=O)[C@H]3CC=CC[C@@H]23)cc1OC1CCCC1` (relative stereo): 116 to 117 °C. Take `CCO[C@@H]1c2ccc3c(nc(C)n3C)c2O[C@H](c2ccccc2)[C@H]1OC(=O)C(C)(C)C`: the melting point is 164 °C. The same measure for `O=C1NCC(Cc2ccccc2F)O1` (stereo unspecified): 113 to 114 °C; for `CCCN(c1nc(-c2ccc(OC)cc2Cl)c(C)s1)c1cc(-c2ccccc2C)ccc1OC`: 55 °C; for `COc1ccc(C(C)OC)c(OC)c1C(O)c1cn(C(c2ccccc2)(c2ccccc2)c2ccccc2)cn1` (stereo unspecified): 96 to 99 °C.

In the case of `Cc1ccc(S(=O)(=O)N2Cc3cncnc3-c3ccc(Cl)cc3C2c2ccccc2Cl)cc1` (stereo unspecified), the melting point lay in the range of 200 to 201 °C. `CCOC(CN1C(=O)C(NC(=O)Nc2cccc(C)c2)CN(C(=O)C(C)(C)C)c2ccccc21)OCC` (stereo unspecified) showed a melting point of 167 to 169 °C.

`COc1ccc(NC(=O)c2ccccc2)cc1NC(=S)Nc1cc(Cl)cc(Cl)c1` yielded a melting point of 194 to 195 °C.

`CN(C)Cc1cc2ccc(-c3nnc(CSCCOc4ccccc4)o3)cc2[nH]1` yielded a melting point of 128 to 130 °C. The same measure for `COCCc1nc2c(N)nc3cc(OCCn4cccc4)ccc3c2n1CC(C)(C)O`: 168 to 169 °C. The same measure for `Nc1c(C(=O)CCC(=O)O)cccc1C(=O)c1ccc(Cl)cc1`: 172 to 177 °C; for `CCc1c2c(nc3cc(F)cc(F)c13)-c1cc3c(c(=O)n1C2)COC(=O)CC3(O)CC` (stereo unspecified): 255 °C; for `BrC(Br)(Br)c1nc2ccccc2s1`: 79 to 80 °C. The same measure for `CN(C)C(=O)N(C)Cc1cccc2c1C(=O)N(C1CCC(=O)NC1=O)C2=O` (stereo unspecified): 206 to 208 °C.

As for `CC(C)CN(Cc1nc(-c2ncn3c2CN(C)C(=O)c2ccccc2-3)no1)CC(C)C`, the melting point was in the range of 170 to 172 °C.

The compound `COc1ccc(/C=C/C(=O)Nc2ccccc2C(=O)O)cc1OC1CCCC1` had a melting point of 211 to 217 °C. Take `NC(=NCC(F)(F)F)Nc1cncc(SCCCC(=O)Nc2ccccc2)n1`: the melting point lay in the range of 165 to 167 °C. Consider `Nc1nc2ccccc2c2c1nc1n2C(COCc2ccc(F)cc2)COC1` (stereo unspecified), for which the melting point fell in the range of 134 to 137 °C.

`CC(OC1CN(C(N)=O)C1)c1cccc(C(F)(F)F)c1` (stereo unspecified) showed a melting point of 130 to 132 °C. The same measure for `CCOC(=O)c1cc2c(cc(C)n2OC)nc1C(=O)OCC`: 94.5 to 96.5 °C; for `COc1ccc(C2=N[C@H](c3ccccc3)CO2)cc1C#CCN(O)C(N)=O`: 190 to 192 °C; for `Cc1ccc(-c2cc(F)c(F)cc2-c2ccc(S(N)(=O)=O)cc2)cc1C`: 133 to 134 °C. The same measure for `NC(=O)Cc1cccc(C(=O)c2ccccc2)c1N`: 178 to 180 °C. Compound `CCOP(=O)(CCN1CCC(N(CCCN)S(=O)(=O)c2ccc(Nc3nccc(Nc4ccc(F)cc4)n3)cc2)CC1)OCC` registered a melting point of 125 to 130 °C.

`CNC(=O)c1cnn(-c2ccccc2)c1Cl`: the melting point was 182 to 183 °C. The same measure for `Nc1ccn2nc(-c3cccnc3)nc2c1`: 228 to 233 °C. As for `O=C(O)c1ccc(NCCc2ccc(OCc3ccccc3)cc2)cc1`, the melting point was in the range of 180 to 185 °C. `COc1ccc(C(=O)COc2ccc(C(=O)O)c(O)c2)cc1C12CC3CC(CC(C3)C1)C2` showed a melting point of 225 to 226 °C. The same measure for `CC1CCN(c2occ(C(C)(C)C)c2C#N)C1=O` (stereo unspecified): 88 to 90 °C; for `N#Cc1ccc(-c2n[nH]cc2C(F)(F)F)cc1SCC(F)(F)F`: 90 to 91 °C. The same measure for `CONS(=O)(=O)c1ccc(Cl)c([N+](=O)[O-])c1`: 69.5 to 71 °C; for `O=C(NN=C1c2cccc(F)c2SCC1c1ccc(F)cc1)Nc1ccc(C(F)(F)F)cc1` (stereo unspecified): 217 to 219 °C; for `COC(=O)Nc1nc2ccc(Oc3ccncc3)cc2[nH]1`: 220 to 224 °C. The compound `O=C(NCc1ccc(F)cc1)c1cn2nc(N3CCN(C(=O)c4ccccc4C(F)(F)F)CC3)ccc2n1` registered a melting point of 205 to 207 °C. In turn, `Cc1oc(-c2ccccc2)nc1CCOc1ccc(N)cn1` had a melting point of 107 to 108 °C. Compound `CN1C(=O)N(c2cc(F)ccc2F)C(=O)C1=Cc1ccccc1F` displayed a melting point of 94 to 97 °C.

With `COC(=O)C[C@H](CCC(=O)OCc1ccccc1)NC(=O)OC(C)(C)C`, the melting point was in the range of 97 to 98 °C. In the case of `NC(=O)N(O)Cc1ccc(OCCc2noc(-c3ccccc3)n2)cc1`, the melting point was in the range of 135 to 136 °C. As to `CC(C)NC(=O)c1ccccc1F`, the melting point lay in the range of 76 to 78 °C.

Compound `CC(C)c1ccc(NC(=O)c2ccc(C(=O)O)cn2)cc1C(C)C` registered a melting point of 188 to 190 °C. Turning to `CC(=S)c1ccc(-c2ccccc2)cc1`, the melting point was 48 to 50 °C.

The compound `O=C(Nc1ccc(-c2c[nH]c(=O)cn2)cc1)c1cccc([N+](=O)[O-])c1` displayed a melting point of over 250 °C.

In turn, `CNC(=S)NS(=O)(=O)c1cc(CCNC(=O)/C=C/c2cccs2)ccc1OC` came in with a melting point of 74 to 77 °C. Compound `COc1ncc(Cc2nnc(Nc3ccc(C(C)(C)C)cc3)c3ccccc23)cc1-c1ccco1` came in with a melting point of 180 to 182 °C. The same measure for `COC(=O)c1ccc(=O)n(CCNC(=O)c2ccccc2)c1`: 190 to 191 °C.

`CCCCCCc1ccc(O)c(C(=O)O)c1` showed a melting point of 83 to 84 °C.

`O=C(CCc1c[nH]c2ccccc12)NCc1ccccc1`: the melting point lay in the range of 73 to 75 °C. In the case of `CC(=O)c1c[nH]c2cn[nH]c2c1=O`, the melting point is over 320 °C. The same measure for `COc1cc(C(=O)N2CCC(CCN3CCC(O)(c4nc5ccccc5n4Cc4ccc(F)cc4)CC3)(c3ccc(Cl)c(Cl)c3)C2)cc(OC)c1OC` (stereo unspecified): 130 to 150 °C; for `CC(C)(CCCCOCCCc1ccccc1)NCc1c(CO)ccc(O)c1CO`: 67 to 69 °C; for `CCCn1nc(C(C)C)c(C(N)=O)c1Cc1ccc(-c2ccccc2-c2nnn[nH]2)cc1`: 156 to 159 °C.

Regarding `O=C(O)CN1C(=O)C(=Cc2ccc(OCc3ccccc3)c(OCc3ccccc3)c2)SC1=S`, the melting point was 235 to 238 °C.

For `O=C(O)c1cc(O)c2c3c(cc(Br)c2n1)S(=O)c1ccccc1-3` (stereo unspecified), the melting point was 289 to 290 °C. The same measure for `CC1(C)OC(=S)Nc2ccc(-c3cncc(Br)c3)cc21`: 252 to 253 °C; for `CCOC(=O)c1nn(-c2ccccc2Br)c(=O)c(C#N)c1C`: 106 to 108 °C. The compound `CN1CCC2(CC1)OC(c1ccccc1)c1cc(O)ccc12` (stereo unspecified) registered a melting point of 193 to 200 °C.

For the compound `CS(=O)(=O)c1ccc(-c2c(F)c(F)c(F)c(F)c2-c2ccc(F)cc2)cc1`, the melting point is 134 to 135 °C.

With `COc1ccc(C2=NNC(=O)CC2c2ccccc2)cc1` (stereo unspecified), the melting point was 176 to 177 °C. Take `CNC(=O)c1cc(C(=O)O)c(Nc2ccc(I)cc2C)c(F)c1F`: the melting point lay within 254 to 259 °C. The same measure for `CC(C)Cc1ccc2oc(=O)c(=O)oc2c1`: 92 to 97 °C; for `CC(C)(C)c1ccc(/C=C/CO[Si](C)(C)C(C)(C)C)cc1[N+](=O)[O-]`: 33 to 34 °C.

`N#Cc1c(-c2ccccc2)sc2c1CNCC2c1ccccc1` (stereo unspecified) yielded a melting point of 160 °C. As to `COC(=O)c1ccc2c(=O)n(Cc3ccc(OC)cc3)c(=O)[nH]c2c1`, the melting point lay within 254 to 256 °C. The same measure for `CCN1CCN(CC)c2cc(Nc3nc(Cl)ncc3Cl)ccc2C1=O`: 71 to 74 °C. The same measure for `COc1ccc(C(=O)N2CCN(c3cc4ccccc4cn3)CC2)cc1`: 156 to 159 °C; for `COC(=O)CCCc1cc2cc(Cl)ccc2n1S(=O)(=O)c1cccc2nsnc12`: 123 to 126 °C. Regarding `CC(CC(=O)O)C(=O)c1ccc(O)cc1` (stereo unspecified), the melting point was 122 to 126 °C. Compound `CCCN(CCC)C(=O)CCn1c(-c2ccc(Cl)cc2)nc2cccnc21` gave a melting point of 104 to 106 °C. Regarding `Nc1nc(-c2ccc(CCN3CCN(c4cccc5cccnc45)CC3)cc2)cs1`, the melting point is over 225 °C.

The values above are taken from a melting point compilation (Tetko et al.; mined from patent text by program, amines drawn as free bases though some values may be those of a salt).
